Assay results taken from patent publication US5075322A, “Selenophen derivatives, a preparation process of the same and therapeutical compositions containing them” (Societe de Conseils de Recherches et d'Applications …, priority 1989, dated 1991).

How the values were obtained:
PAF induced bronchospasm = test: PAF-induced bronchospasm in artificially-ventilated anaesthetized guinea pigs; format: in vivo; conditions: for Percentage of bronchoconstriction / Percentage of effect: Table VII, PAF 60 mg/kg IV
From the text: (§1) The different symbols NS, *, ** and *** which may be found in the different tables, mean that the result is respectively not significative, significative, very significative and highly significative.

rat washed platelets = test: PAF-induced aggregation of rat washed platelets in vitro; format: cell-based; conditions: Platelet, PAF 5.10^-10 M
From the text: In vitro: effects on aggregation (IC50) induced by PAF (5·10^-10 M), rat washed platelets are as follow: IC50 Compound XI 2.10^-6 M. IC50 Ketotifen 10^-5 M.

[1] = tested on: ovalbumine-induced bronchospasm; test: ovalbumine-induced bronchospasm in anaesthetized passively sensitized guinea-pigs; format: in vivo
Description: In the ovalbumine-induced bronchospasm in anaesthetized passively sensitized guinea-pigs, compound XI and ketotifen, administered 1 hour before the injection of ovalbumine, inhibit the bronchoconstriction (>90%) in a dose-dependant-manner respectively with following ED50 (P.O.)
For both products, the activity disappears at 24 hours.
The kinetic results, after administration by oral route of the said compounds at 0.1 mg/kg and 0.05 mg/kg (P.O.), for 1 to several hours before ovalbumine injection (1 mg/kg), are reported respectively in tables 1 and 2.
as §1

[2] = tested on: B.S.A.-induced immune lethality in mice; test: B.S.A.-induced immune lethality (anaphylactic shock) in actively sensitized mice; format: in vivo
From the text: as §1
At the same dose, ketotifen has no effect.

[3] = tested on: ovalbumine-induced bronchospasm; test: ovalbumine-induced bronchoconstriction in passively sensitized rats; format: in vivo; conditions: for Percentage of bronchoconstriction / Percentage of effect: Table IV
From the text: as §1

[4] = anti-allergic activity (general statements)
[5] = tested on: histamine induced bronchospasm; test: histamine-induced bronchospasm in artificially ventilated anaesthetized guinea pigs; format: in vivo; conditions: for % of bronchoconstriction / % of effect: Table V, 0.1 mg/kg PO
Description: as §1
The kinetic results of the administration of compound XI and ketotifen by oral route at 0.1 mg/kg (P.O.), 1 to 27 h histamine injection (15 mg IV), are reported in table 5.

[6] = tested on: histamine induced bronchospasm; test: as above; format: in vivo; conditions: Cavia porcellus, po, 1 h, read-out: ED50 (P.O.)
[7] = tested on: ovalbumine-induced bronchospasm; test: ovalbumine-induced bronchospasm in actively sensitized guinea pigs; format: in vivo; conditions: Table III, 0.1 mg/kg PO
From the text: as §1

[8] = Table I, 0.1 mg/kg PO, pretreatment 1 h
[9] = Table I, 0.1 mg/kg PO, pretreatment 3 h
[10] = Table I, 0.1 mg/kg PO, pretreatment 6 h
[11] = Table I, 0.1 mg/kg PO, pretreatment 9 h
[12] = Table I, 0.1 mg/kg PO, pretreatment 15 h
[13] = Table I, 0.1 mg/kg PO, pretreatment 18 h
[14] = Table I, 0.1 mg/kg PO, pretreatment 21 h
[15] = Table I, 0.1 mg/kg PO, pretreatment 24 h
[16] = Table II, 0.05 mg/kg PO, pretreatment 1 h
[17] = Table II, 0.05 mg/kg PO, pretreatment 3 h
[18] = Table II, 0.05 mg/kg PO, pretreatment 6 h
[19] = Table II, 0.05 mg/kg PO, pretreatment 9 h
[20] = Table II, 0.05 mg/kg PO, pretreatment 15 h
[21] = Table II, 0.05 mg/kg PO, pretreatment 18 h
[22] = Table II, 0.05 mg/kg PO, pretreatment 21 h

Structure (SMILES): CN1CCC(=C2c3ccccc3CC(=O)c3[se]ccc32)CC1 [Compound XI, 4-(1-methyl 4-piperidyliden) 9,10-dihydro 4H-benzo [4,5] cyclohepta [1,2-b] selenophen 10-one]
- inhibition of PAF induced bronchospasm (in words) (PAF induced bronchospasm; 1 hour before PAF, 0.1 mg/kg): significantly inhibits the bronchospasm
- Percentage of bronchoconstriction (PAF induced bronchospasm; 0.1 mg/kg PO): 29.4 ± 7.9%
- Percentage of effect (PAF induced bronchospasm; 0.1 mg/kg PO): -62.5%
- Percentage of bronchoconstriction (PAF induced bronchospasm; 1 mg/kg PO): 23.0 ± 9.7%
- Percentage of effect (PAF induced bronchospasm; 1 mg/kg PO): -70.6%
- IC50 (rat washed platelets): 2 µM
- time at which the activity disappears ([1]; 0.1 mg/kg and 0.05 mg/kg P.O.): 24 h
- ED50 ([1]; Cavia porcellus, po, 1 h, read-out: ED50 (P.O.)): 0.0572 µmol/kg
- % of bronchoconstriction [1, 8]: 6.9 ± 1.0%
- % of effect [1, 8]: -91.5 ± 1.3%
- % of bronchoconstriction [1, 9]: 3.9 ± 1.1%
- % of effect [1, 9]: -93.7 ± 1.7%
- % of bronchoconstriction [1, 10]: 15.0 ± 11.5%
- % of effect [1, 10]: -75.9 ± 18.4%
- % of bronchoconstriction [1, 11]: 35.7 ± 18.8%
- % of effect [1, 11]: -60.1 ± 21.1%
- % of bronchoconstriction [1, 12]: 38.9 ± 13.7%
- % of effect [1, 12]: -50.7 ± 17.3%
- % of bronchoconstriction [1, 13]: 36.8 ± 17.5%
- % of effect [1, 13]: -62.0 ± 18.1%
- % of bronchoconstriction [1, 14]: 73.3 ± 14.2%
- % of effect [1, 14]: -24.3 ± 14.7%
- % of bronchoconstriction [1, 15]: 45.4 ± 15.2%
- % of effect [1, 15]: -27.1 ± 24.4%
- % of bronchoconstriction [1, 16]: 13.2 ± 5.4%
- % of effect [1, 16]: -85.1%
- % of bronchoconstriction [1, 17]: 17.7 ± 7.0%
- % of effect [1, 17]: -80.5%
- % of bronchoconstriction [1, 18]: 38.3 ± 16.5%
- % of effect [1, 18]: -60.4%
- % of bronchoconstriction [1, 19]: 49.2 ± 16.7%
- % of effect [1, 19]: -49.2%
- % of bronchoconstriction [1, 20]: 61.6 ± 18.7%
- % of effect [1, 20]: -6.5%
- % of bronchoconstriction [1, 21]: 50.7 ± 20.4%
- % of effect [1, 21]: -48.3%
- % of bronchoconstriction [1, 22]: 94.6 ± 4.4%
- % of effect [1, 22]: -3.5%
- inhibition of bronchoconstriction ([1]; administered 1 hour before ovalbumine, P.O., dose-dependent): > 90%
- protective effect (in words) ([2]; 0.275 mg/kg P.O.): shows a protective effect
- Mortality at 24 hours, % of mortality ([2]; 0.275 mg/kg PO): 20%
- Mortality at 24 hours, % of variation ([2]; 0.275 mg/kg PO): -67.5%
- Mortality at 24 hours, number of killed ([2]; 0.275 mg/kg PO): 2/10
- Mortality at 24 hours, % of mortality ([2]; 0.550 mg/kg PO): 10%
- Mortality at 24 hours, % of variation ([2]; 0.550 mg/kg PO): -83.7%
- Mortality at 24 hours, number of killed ([2]; 0.550 mg/kg PO): 1/10
- Percentage of bronchoconstriction ([3]; 0.1 mg/kg PO): 18.1 ± 6.3%
- Percentage of effect ([3]; 0.1 mg/kg PO): -49.4%
- Percentage of bronchoconstriction ([3]; 1 mg/kg PO): 11.2 ± 2.7%
- Percentage of effect ([3]; 1 mg/kg PO): -68.7%
- inhibition of bronchoconstriction (in words) ([3]; passively sensitized rats): inhibits the bronchoconstriction in a dose-dependant manner
- anti-allergic activity compared with compound X [4]: higher activity than compound X
- histamine and ovalbumine antagonist activity ([4]; oral drug): powerful histamine and ovalbumine antagonist
- % of bronchoconstriction ([5]; 1 h): 2.0 ± 0.8%
- % of effect ([5]; 1 h): -97.5 ± 1.0%
- % of bronchoconstriction ([5]; 3 h): 1.0 ± 1.0%
- % of effect ([5]; 3 h): -98.8 ± 1.2%
- % of bronchoconstriction ([5]; 6 h): 5.4 ± 3.2%
- % of effect ([5]; 6 h): -93.5 ± 3.8%
- % of bronchoconstriction ([5]; 9 h): 4.9 ± 1.7%
- % of effect ([5]; 9 h): -93.6 ± 2.3%
- % of bronchoconstriction ([5]; 15 h): 36.6 ± 8.4%
- % of effect ([5]; 15 h): -48.2 ± 11.8%
- % of bronchoconstriction ([5]; 18 h): 34.9 ± 18.1%
- % of effect ([5]; 18 h): 61.7 ± 19.9%
- % of bronchoconstriction ([5]; 21 h): 52.9 ± 9.7%
- % of effect ([5]; 21 h): 37.6 ± 11.5%
- % of bronchoconstriction ([5]; 24 h): 37.9 ± 9.9%
- % of effect ([5]; 24 h): -42.3 ± 15.0%
- % of bronchoconstriction ([5]; 27 h): 76.8 ± 10.2%
- % of effect ([5]; 27 h): +6.3 ± 14.1%
- inhibition of bronchoconstriction (in words) ([5]; administered 1 hour before histamine (15 mg IV)): inhibit significantly the bronchoconstriction in a dose-dependant-manner
- duration of total inhibition of the bronchospasm ([5]; during the first hours, 0.1 mg/kg P.O.): 9 h
- ED50 [6]: 0.0169 µmol/kg
- % of bronchoconstriction ([7]; pretreatment 1 h): 3.5 ± 1.1%
- % of effect ([7]; pretreatment 1 h): -96.1 ± 1.3%
- % of bronchoconstriction ([7]; pretreatment 3 h): 5.0 ± 1.6%
- % of effect ([7]; pretreatment 3 h): -93.4 ± 2.1%
- % of bronchoconstriction ([7]; pretreatment 6 h): 2.1 ± 0.6%
- % of effect ([7]; pretreatment 6 h): -97.3 ± 0.8%
- % of bronchoconstriction ([7]; pretreatment 9 h): 35.5 ± 15.9%
- % of effect ([7]; pretreatment 9 h): -61.1 ± 22.2%
- % of bronchoconstriction ([7]; pretreatment 15 h): 42.2 ± 16.6%
- % of effect ([7]; pretreatment 15 h): -50.6 ± 19.5%
- % of bronchoconstriction ([7]; pretreatment 18 h): 67.1 ± 19.0%
- % of effect ([7]; pretreatment 18 h): +22.7 ± 34.8%
- % of bronchoconstriction ([7]; pretreatment 21 h): 50.1 ± 21.6%
- % of effect ([7]; pretreatment 21 h): -8.3 ± 39.5%
